# Assay results from patent publication US7799824B2, “Quaternary salt CCR2 antagonists” (OraPharma, Inc., priority 2004, dated 2010).
# Target: T1, CCR2 (Homo sapiens, UniProt P41597)
# T1 sequence (P41597 1-360 isoform P41597-2): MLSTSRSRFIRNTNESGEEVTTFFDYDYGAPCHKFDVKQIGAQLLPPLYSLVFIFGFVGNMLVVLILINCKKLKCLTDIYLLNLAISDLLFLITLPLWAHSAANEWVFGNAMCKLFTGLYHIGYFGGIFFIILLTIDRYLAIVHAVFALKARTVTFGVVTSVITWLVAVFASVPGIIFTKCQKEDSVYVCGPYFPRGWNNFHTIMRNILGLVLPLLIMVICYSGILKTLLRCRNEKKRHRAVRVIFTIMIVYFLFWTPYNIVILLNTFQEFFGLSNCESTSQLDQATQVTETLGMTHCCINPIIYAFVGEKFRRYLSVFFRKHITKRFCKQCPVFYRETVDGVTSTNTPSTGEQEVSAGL
# Test: MCP-1 Receptor Binding Assay in THP-1 Cells
# Conditions: MCP-1 binding to CCR2; test concentration of 25 μM, unless indicated otherwise; read-out: % Inhibition Ligand Binding
# Protocol: THP-1 cells were obtained from American Type Culture Collection (Manassas, Va., USA). […] The cell density was maintained between 0.5×10^6 cells/mL.
# Cells were then harvested onto a filter plate, dried, and 20 μL of Microscint 20 was added to each well. Plates were counted in a TopCount NXT, Microplate Scintillation & Luminescence Counter (Perkin-Elmer Life Sciences, Inc. Boston, Mass.). Blank values (buffer only) were subtracted from all values and drug treated values were compared to vehicle treated values. 1 μM cold MCP-1 was used for nonspecific binding.
row,inhibition at 25 µM,SMILES
1,34%,"C[N+](C)(Cc1cccc(NC(=O)c2cccc(Br)c2)c1)C1CCOCC1 [Cpd 8, [3-(3-bromo-benzoylamino)-benzyl]-dimethyl-(tetrahydro-pyran-4-yl)-ammonium iodide]"
2,38%,"C[N+](C)(Cc1ccc(NC(=O)c2c(Cl)cccc2Cl)cc1)C1CCOCC1 [Cpd 12, [4-(2,6-dichloro-benzoylamino)-benzyl]-dimethyl-(tetrahydro-pyran-4-yl)-ammonium iodide]"
3,15%,"Cc1c(Cl)cccc1C(=O)Nc1ccc(C[N+](C)(C)C2CCOCC2)cc1 [Cpd 25, [4-(3-chloro-2-methyl-benzoylamino)-benzyl]-dimethyl-(tetrahydro-pyran-4-yl)-ammonium iodide]"
4,87%,"C[N+](C)(Cc1ccc(NC(=O)C=Cc2ccc(Cl)c(Cl)c2)cc1)C1CCSCC1 [Cpd 41, {4-[3-(3,4-dichloro-phenyl)-acryloylamino]-benzyl}-dimethyl-(tetrahydro-thiopyran-4-yl)-ammonium iodide]"

# Same assay, conditions: THP-1 cells, 0.5 nM 125I labeled MCP-1, 2 hours at 30° C.; read-out: Mean Ligand Binding IC50 (inhibition of MCP-1 binding to CCR2)
row,SMILES,IC50
1,"C[N+](C)(Cc1ccc(CNC(=O)C=Cc2cccc(Br)c2)cc1)C1CCCCC1 [Cpd 1, (4-{[3-(3-bromo-phenyl)-acryloylamino]-methyl}-benzyl)-cyclohexyl-dimethyl-ammonium iodide]",2.3 µM
2,"C[N+](C)(Cc1ccc(CNC(=O)c2cccc(Br)c2)cc1)C1CCCCC1 [Cpd 2, {4-[(3-bromo-benzoylamino)-methyl]-benzyl}-cyclohexyl-dimethyl-ammonium iodide]",5.5 µM
3,"C[N+](C)(Cc1ccc(CNC(=O)c2cccc(C(F)(F)F)c2)cc1)C1CCCCC1 [Cpd 3, cyclohexyl-dimethyl-{4-[(3-trifluoromethyl-benzoylamino)-methyl]-benzyl}-ammonium iodide]",4.3 µM
4,"C[N+](C)(Cc1ccc(CNC(=O)C=Cc2cccc(Br)c2)cc1)C1CCOCC1 [Cpd 5, (4-{[3-(3-bromo-phenyl)-acryloylamino]-methyl}-benzyl)-dimethyl-(tetrahydro-pyran-4-yl)-ammonium iodide]",8.3 µM
5,"C[N+](C)(Cc1ccc(NC(=O)c2ccc(Cl)c(Cl)c2)cc1)C1CCSC1 (stereo not drawn) [Cpd 19, [4-(3,4-dichloro-benzoylamino)-benzyl]-dimethyl-(tetrahydro-thien-3-yl)-ammonium iodide]",0.005 µM
6,"CC[N+](C)(Cc1ccc(NC(=O)c2ccc(Cl)c(Cl)c2)cc1)C1CCOCC1 (stereo not drawn) [Cpd 21, [4-(3,4-dichloro-benzoylamino)-benzyl]-ethyl-methyl-(tetrahydro-pyran-4-yl)-ammonium iodide]",0.15 µM
7,"COc1ccc(C(=O)Nc2ccc(C[N+](C)(C)C3CCOCC3)cc2)cc1Cl [Cpd 27, [4-(3-chloro-4-methoxy-benzoylamino)-benzyl]-dimethyl-(tetrahydro-pyran-4-yl)-ammonium iodide]",0.75 µM
8,"Cc1cc(Cl)ccc1C(=O)Nc1ccc(C[N+](C)(C)C2CCOCC2)cc1 [Cpd 32, [4-(4-chloro-2-methyl-benzoylamino)-benzyl]-dimethyl-(tetrahydro-pyran-4-yl)-ammonium iodide]",3.4 µM
9,"C[N+](C)(Cc1ccc(NC(=O)c2ccc(Cl)c(C(F)(F)F)c2)cc1)C1CCOCC1 [Cpd 33, [4-(4-chloro-3-trifluoromethyl-benzoylamino)-benzyl]-dimethyl-(tetrahydro-pyran-4-yl)-ammonium iodide]",0.4 µM
10,"Cc1ccc(Cl)cc1C(=O)Nc1ccc(C[N+](C)(C)C2CCOCC2)cc1 [Cpd 35, [4-(5-chloro-2-methyl-benzoylamino)-benzyl]-dimethyl-(tetrahydro-pyran-4-yl)-ammonium iodide]",0.4 µM
11,"C[N+](C)(CCc1ccc(NC(=O)c2cccc(Br)c2)cc1)C1CCOCC1 [Cpd 37, {2-[4-(3-bromo-benzoylamino)-phenyl]-ethyl}-dimethyl-(tetrahydro-pyran-4-yl)-ammonium iodide]",10.2 µM
12,"C[N+](C)(Cc1cccc(NC(=O)C=Cc2cccc(Br)c2)c1)C1CCOCC1 [Cpd 38, {3-[3-(3-bromo-phenyl)-acryloylamino]-benzyl}-dimethyl-(tetrahydro-pyran-4-yl)-ammonium iodide]",5 µM
13,"C[N+](C)(Cc1ccc(NC(=O)C=Cc2cc(F)cc(F)c2)cc1)C1CCOCC1 [Cpd 42, {4-[3-(3,5-difluoro-phenyl)-acryloylamino]-benzyl}-dimethyl-(tetrahydro-pyran-4-yl)-ammonium iodide]",5.7 µM
14,"C[N+](C)(Cc1ccc(NC(=O)C=Cc2cccc(Br)c2)cc1)C1CCSCC1 [Cpd 44, {4-[3-(3-bromo-phenyl)-acryloylamino]-benzyl}-dimethyl-(tetrahydro-thiopyran-4-yl)-ammonium iodide]",14.6 µM
15,"C[N+](C)(Cc1ccc(NC(=O)C=Cc2ccc(Br)cc2)cc1)C1CCOCC1 [Cpd 47, {4-[3-(4-bromo-phenyl)-acryloylamino]-benzyl}-dimethyl-(tetrahydro-pyran-4-yl)-ammonium iodide]",3.7 µM
16,"C[N+]1(Cc2ccc(NC(=O)c3ccc(Cl)c(Cl)c3)cc2)CCCCC1 [Cpd 50, 1-[4-(3,4-dichloro-benzoylamino)-benzyl]-1-methyl-piperidinium iodide]",2.6 µM
17,"C[N+]1(Cc2ccc(NC(=O)c3ccc(Cl)c(Cl)c3)cc2)CCCC1 [Cpd 51, 1-[4-(3,4-dichloro-benzoylamino)-benzyl]-1-methyl-pyrrolidinium iodide]",2.7 µM
18,"C[N+]1(Cc2cccc(NC(=O)C=Cc3cccc(Br)c3)c2)CCCCC1 [Cpd 52, 1-{3-[3-(3-bromo-phenyl)-acryloylamino]-benzyl}-1-methyl-piperidinium iodide]",2.6 µM
19,"C[N+]1(Cc2cccc(NC(=O)c3cccc(C(F)(F)F)c3)c2)CCCCC1 [Cpd 56, 1-methyl-1-[3-(3-trifluoromethyl-benzoylamino)-benzyl]-piperidinium iodide]",11.8 µM
20,"C[N+]1(Cc2ccc(NC(=O)C=Cc3cccc(C(F)(F)F)c3)cc2)CCCCC1 [Cpd 57, 1-methyl-1-{4-[3-(3-trifluoromethyl-phenyl)-acryloylamino]-benzyl}-piperidinium iodide]",13.3 µM

# Next, values leading:
row,IC50,SMILES
1,11.9 µM,"C[N+]1(Cc2ccc(CNC(=O)C=Cc3cccc(Br)c3)cc2)CCCCC1 [Cpd 49, 1-(4-{[3-(3-bromo-phenyl)-acryloylamino]-methyl}-benzyl)-1-methyl-piperidinium iodide]"
2,8.4 µM,"C[N+]1(Cc2ccc(CNC(=O)C=Cc3ccc(Cl)c(Cl)c3)cc2)CCCCC1 [Cpd 48, 1-(4-{[3-(3,4-dichloro-phenyl)-acryloylamino]-methyl}-benzyl)-1-methyl-piperidinium iodide]"
3,5.4 µM,"C[N+]1(Cc2ccc(NC(=O)C=Cc3cccc(Br)c3)cc2)CCCCC1 [Cpd 55, 1-{4-[3-(3-bromo-phenyl)-acryloylamino]-benzyl}-1-methyl-piperidinium iodide]"
4,3.2 µM,"C[N+]1(Cc2ccc(NC(=O)C=Cc3ccc(Cl)c(Cl)c3)cc2)CCCCC1 [Cpd 53, 1-{4-[3-(3,4-dichloro-phenyl)-acryloylamino]-benzyl}-1-methyl-piperidinium iodide]"
5,3.1 µM,"C[N+](C)(Cc1ccc(CNC(=O)C=Cc2ccc(Cl)c(Cl)c2)cc1)C1CCOCC1 [Cpd 4, (4-{[3-(3,4-dichloro-phenyl)-acryloylamino]-methyl}-benzyl)-dimethyl-(tetrahydro-pyran-4-yl)-ammonium iodide]"
6,3.1 µM,"C[N+](C)(Cc1ccc(NC(=O)c2cc(Cl)ccc2Cl)cc1)C1CCOCC1 [Cpd 11, [4-(2,5-dichloro-benzoylamino)-benzyl]-dimethyl-(tetrahydro-pyran-4-yl)-ammonium iodide]"
7,2 µM,"C[N+](C)(Cc1ccc(NC(=O)c2ccc(Cl)c(Cl)c2)cc1)C[C@@H]1CCCO1 [Cpd 15, (2S)-[4-(3,4-dichloro-benzoylamino)-benzyl]-dimethyl-(tetrahydro-furan-2-ylmethyl)-ammonium iodide]"
8,1.6 µM,"CCC[N+](C)(Cc1ccc(NC(=O)c2ccc(Cl)c(Cl)c2)cc1)C1CCOCC1 (stereo not drawn) [Cpd 22, [4-(3,4-dichloro-benzoylamino)-benzyl]-methyl-propyl-(tetrahydro-pyran-4-yl)-ammonium iodide]"
9,0.85 µM,"C[N+](C)(Cc1ccc(NC(=O)c2ccc(Cl)c(Cl)c2)cc1)C[C@H]1CCCO1 [Cpd 16, (2R)-[4-(3,4-dichloro-benzoylamino)-benzyl]-dimethyl-(tetrahydro-furan-2-ylmethyl)-ammonium iodide]"
10,0.46 µM,"Cc1ccc(C(=O)Nc2ccc(C[N+](C)(C)C3CCOCC3)cc2)cc1Cl [Cpd 28, [4-(3-chloro-4-methyl-benzoylamino)-benzyl]-dimethyl-(tetrahydro-pyran-4-yl)-ammonium iodide]"
11,0.34 µM,"C[N+](C)(Cc1ccc(NC(=O)C=Cc2cccc(Br)c2)cc1)C1CCOCC1 [Cpd 43, {4-[3-(3-bromo-phenyl)-acryloylamino]-benzyl}-dimethyl-(tetrahydro-pyran-4-yl)-ammonium iodide]"
12,0.26 µM,"C[N+](C)(Cc1ccc(NC(=O)C=Cc2cccc(Cl)c2)cc1)C1CCOCC1 [Cpd 45, {4-[3-(3-chloro-phenyl)-acryloylamino]-benzyl}-dimethyl-(tetrahydro-pyran-4-yl)-ammonium iodide]"
